Columns and labels:
[1] = tested on: MEFs transfected with OSKM; assay: efficiency of iPSC generation from OSKM-transfected MEFs (ALP staining); type: cell-based, mouse; details: induced by OSKM, day 21 post-reprogramming
Source text: C57/B6 mice were used in this study and all procedures involving animals were approved by the Animals Committee of the Taipei Veterans General Hospital. Murine iPSCs were generated from mouse embryonic fibroblasts (MEFs) derived from 13.5-day-old embryos of C57/B6 mice. The iPSCs were reprogrammed by the transduction of retroviral vectors encoding four transcription factors (Oct4/Sox2/Klf4/c-Myc; OSKM), or three transcription factors (Oct4/Sox2/Klf4; OSK), as described previously (Li et al., 2011). Total of 12 clones (Re-1 to Re-12; OSKM) were selected and established. The clone of Re-7 iPSCs had been stably passed to more than 100 th passages with high pluripotency. Therefore, Re-7 iPSCs were selected and widely used in this study. Briefly, undifferentiated iPSCs were routinely cultured and expanded on mitotically-inactivated MEFs (50,000 cells/cm 2) in six-well culture plates (BD Technology) in the presence of 0.3% leukemia inhibitory factor in an iPSC medium consisting of Dulbecco's Modified Eagle's Medium (DMEM; Sigma) supplemented with 15% fetal bovine serum (FBS; Invitrogen), […] minimal essential medium (MEM) nonessential amino acids (Sigma), 0.55 mM 2-mercaptoethanol (Gibco), and antibiotics (Invitrogen). Every three to four days, colonies were detached with 0.2% collagenase IV (Invitrogen), dissociated into single cells with 0.025% trypsin (Sigma) and 0.1% chicken serum (Invitrogen) in PBS, and replated onto MEFs. For embryoid body (EB) formation, iPSCs were dissociated into a single cell suspension by 0.25% trypsin-EDTA and plated onto non-adherent culture dishes in DMEM with 15% FBS, […] MEM nonessential amino acids, 0.55 mM 2-mercaptoethanol, and antibiotics at a density of 2×10^6 cells/100 mm plate. After 4 days in floating culture, EBs were transferred onto gelatin-coated plates and maintained in the same medium for 24 h. EBs were then assigned for in vitro differentiation into tridermal lineages as previously described (Li et al., 2011). […]

Mice (C57/B6) [2] = assay: CCl4-induced acute liver injury model; type: in vivo, mouse; details: CCl4-injured mice
Experimental: (§1) Mice (C57/B6, 8 to 10 weeks) were housed in cage and allowed free access to food and water. Mouse was given carbon tetrachloride (CCl4, Sigma) in mineral oil (0.35·μl/g, single dose, i.p.) to induce liver injury. At 4 h post-injury, mice were randomized to receive vehicle (PBS), iPS cells or iHL (2×10^6 cells/in 100 μl PBS) infusions via tail veins. For the time points study, mouse received blood withdrawal (˜100 μl) from facial veins at scheduled time for liver biochemistry. When mouse was sacrificed, blood was drawn from the heart and the liver was harvested and prepared for subsequent experiments including histochemistry, cytokine assay, protein and gene expression analysis. For neutralizing antibody study, mouse was given two doses (0.5 μg/dose, i.p.) of anti-IP-10 antibodies (Abcam, ab9938, Cambridge, UK) at 4 h before and 4 h after injury. For 72 h survival study, mice received repetitive CCl4 injury at 0, 24 and 48 h. […]
The paraffin sections of livers were stained by H.E. and photo-taken under microscopy at 40× magnification to evaluate the degree of injury. Necrotic area were determined by measuring five independent fields per liver using a computerized morphometry system (MicroCam, M&T OPTICS, Taiwan) and expressed as percentage of the filed area. […]

hepatocytes = assay: viability of CCl4-injured hepatocytes (MTT assay); type: cell-based; details: 0.5 or 5 ng, CCl4 concentration of 1.0 to 2.5 mM, 24 h
Experimental: Mouse germline-competent iPS cells were provided by Kyoto University (Dr. Shinya Yamanaka) and RIKEN BRC, Japan (Takahashi K et al. (2006) Cell 126:663-676). IPS cells were cultured as previously described (Okita K et al. (2007) Nature 448: 313-317.9). […] For recombinant IP-10 (rIP-10, Peprotech, NC) study, hepatocytes were seeded on 24-well plates at the same density. The rIP-10 (0.5 ng or 5 ng) was given at 4 h post-injury. The viability of hepatocytes was evaluated at 24 h by methyl thiazol tetrazolium (MTT, Sigma) assay.

Mice (C57/B6) [3] = assay: 72-hour survival of repetitive CCl4-injured mice; type: in vivo, mouse; details: repetitive CCl4 at 0, 24 and 48 h; treatment once at 4 h
Experimental: as §1, with “h. The iPS cells (2×10^6 cells/in 100 μl PBS) or recombinant IP10 (rIP10, 0.5 ng) were given once at 4 h and the mortality rate of mice was observed until 72 h post-injury.” for “h.”
To evaluate the survival effects of iPS cells and IP-10, the 72-hour survival rates were evaluated in repetitive CCl4-injured mice, to which two additional doses of CCl4 (given at 24 and 48 hours) were given after the first dose. […]

Molecule | efficiency of iPSC generation [1] | degree of liver damage (Mice (C57/B6) [2]) | viability of injured hepatocytes (hepatocytes) | 72-hour survival rates (Mice (C57/B6) [3])
C[C@]1(c2nc3c(C(N)=O)cccc3[nH]2)CCCN1 [ABT-888] | reduction in the efficiency of iPSC generation | – | – | –
NC(=O)c1cccc(N)c1 [3-aminobenzamide] | reduction in the efficiency of iPSC generation | – | – | –
CN(C)CC(=O)Nc1ccc2[nH]c(=O)c3ccccc3c2c1 [PJ-34] | reduction in the efficiency of iPSC generation | – | – | –
rIP-10: recombinant IP-10 (Peprotech) | – | significantly reduced | sufficiently increased the viability | 100%

Reference: patent publication US20140093486A1, “METHOD FOR PREPARING INDUCED PLURIPOTENT STEM CELLS AND ITS APPLICATIONS” (Taipei Veterans General Hospital, priority 2012, published 2014)
